Experiments:
[1] = test system: Bex4 transcription in OV207; test: Bex4 transcription in OV207 cells after 5-aza-dC treatment; assay type: cell-based, human; details: OV207 cell line
Excerpt: Methylation at site 1 in these samples was associated with loss of Bex4 expression, as evidenced by semi-quantitative RT-PCR.

[2] = test system: Bex4 transcription in OV202 cells; test: Bex4 transcription (RT-PCR) in OV202 cells after 5-aza-2′-deoxycytidine treatment; assay type: cell-based, human; details: OV202 cells, 0, 1, 5, or 10 μM, 48 hours, PCR with Bex4 specific primers
Protocol: To determine if hypermethylation is responsible for inactivation of Bex4 expression in OvCa cell lines, OV202 cells were treated with 0, 1, 5, or 10 μM 5-aza-2′-deoxycytidine (a DNA methyltransferase inhibitor) for 48 hours. RNA was extracted, reverse transcribed, and analyzed by PCR using Bex4 specific primers.

[3] = test system: Bex4 expression in Xa cell line; test: Bex4 expression and site 1 methylation in Xa hybrid cell line after inhibitor treatment; assay type: cell-based; details: for Bex4 expression / transcription: Xa (active X) hybrid cell line, various concentrations
Protocol: To determine if methylation of site 1 controlled Bex4 expression in the Xa cell line, cells were treated with various concentrations of the methyltransferase inhibitor 5-aza-2′ deoxycytidine (5-aza-dC). […] Epigenetic inactivation Bex4 in Xa was specific, since two genes flanking Bex4, namely Bex3/NADE and pp21 homolog, were expressed in Xa.

| Structure (SMILES) | Bex4 transcription [1] | transcription of Bex4 [2] | methylation of site 1 (bisulfite-modified DNA) ([3]; 5-aza-dC treated Xa cells) | Bex4 expression / transcription [3] |
| --- | --- | --- | --- | --- |
| Nc1ncn([C@H]2C[C@H](O)[C@@H](CO)O2)c(=O)n1 [5-aza-2′-deoxycytidine] | induced Bex4 transcription | dose dependant increase | demethylation of site 1 | dose-dependent increase |
| CC(/C=C/C(=O)NO)=C\[C@@H](C)C(=O)c1ccc(N(C)C)cc1 [Trichostatin A, trichostatin A] | – | – | – | did not affect |
